Reference: patent US20050277699A1, “Method of decreasing sebum production and pore size” (Unilever Home & Personal Care USA, Division Of Conopco, Inc., priority 2004, published 2005)

Tested on: human sebocytes
Assay: Sebocyte assay: 14C-acetate label remaining in cultured sebocytes (sebum suppression)
Type: cell-based
Procedure: Secondary cultures of human sebocytes obtained from an adult […] were grown in 96-well tissue culture plates (Packard) until three days post-confluence. Sebocyte growth medium consisted of Clonetics Keratinocyte Basal Medium (KBM) supplemented with 14 ug/ml bovine pituitary extract, 0.4 ug/ml hydrocortisone, 5 ug/ml insulin, 10 ng/ml epidermal growth factor, 1.2×10^−10 M cholera toxin, 100 units/ml penicillin, and 100 ug/ml streptomycin. All cultures were incubated at 37° C. in the presence of 7.5% CO2. Medium was changed three times per week. On the day of experimentation, the growth medium was removed and the sebocytes washed three times with sterile Dulbecco's Modified Eagle Medium (DMEM; phenol red free). Fresh DMEM (200-microliters per well) was added to each sample (5 replicates) with 5-microliters of test agent (DL-α-Difluoromethylornithine hydrochloride) solubilized in water. Controls consisted of addition of water alone. Each plate was returned to the incubator for 20-hours followed by the addition of ^14C-acetate buffer (5 mM final concentration, 56 mCi/mmol specific activity). Sebocytes were returned to the incubator for 4-hours afterwhich each culture was rinsed 3-times with phosphate buffered saline to remove unbound label. Radioactive label remaining in the sebocytes was determined using a Packard TopCount scintillation counter. Statistical significance (p value) was calculated using student's t-test. Phenol Red, a known sebum suppressive agent, was employed as a positive control. […] The experiment was repeated as above with modifications. On the day of experimentation, the growth medium was removed and the sebocytes washed three times with sterile Dulbecco's Modified Eagle Medium (DMEM; phenol red free). Fresh DMEM was added to each sample (3 replicates) with 5-microliters of test agent (DL-a-Difluoromethylornithine hydrochloride) solubilized in water. Controls consisted of addition of water alone. Each plate was returned to the incubator for 68-hours followed by the addition of ^14C-acetate buffer (5 mM final concentration, 56 mCi/mmol specific activity). Sebocytes were returned to the incubator for 4-hours, followed by rinsing each culture 3-times with phosphate buffered saline to remove unbound label. Radioactive label remaining in the sebocytes was determined using a Packard TopCount scintillation counter. Statistical significance (p value) was calculated using student's t-test.

In the case of `O=S1(=O)OC(c2ccc(O)cc2)(c2ccc(O)cc2)c2ccccc21` [Phenol Red], the activity at 28.2 µM (Homo sapiens, 28.2 uM, 20-hours incubation then 4-hours 14C-acetate (24-hours), positive control, read-out: % of Control (radioactive label remaining in the sebocytes)) is reported as 22.1% and the activity at 282 µM (Homo sapiens, 282 uM, 20-hours incubation then 4-hours 14C-acetate (24-hours), positive control, read-out: % of Control (radioactive label remaining in the sebocytes)) is reported as 34.5%.

In the case of `Cl.NCCCC(N)(C(=O)O)C(F)F` (racemic) [DFMO, DL-α-Difluoromethylornithine hydrochloride], the “% of Control (radioactive label remaining in the sebocytes)” value (10 uM, 20-hours incubation then 4-hours 14C-acetate (24-hours), 5 replicates) is reported as 95.5%, the “% of Control (radioactive label remaining in the sebocytes)” value (10 uM, 68-hours incubation then 4-hours 14C-acetate, 3 replicates) is reported as 59.5% and the “% of Control (radioactive label remaining in the sebocytes)” value (1000 uM, 20-hours incubation then 4-hours 14C-acetate (24-hours), 5 replicates) is reported as 88.0%. The “% of Control (radioactive label remaining in the sebocytes)” value (1000 uM, 68-hours incubation then 4-hours 14C-acetate, 3 replicates) was 41.4% and the “sebum suppressive activity (in words)” value (after prolonged incubation (68-hours + 4-hours)) was “enhanced sebum suppressive activity”.
